From patent publication US20170355705A1 (GlaxoSmithKline Intellectual Property (No.2) Limited, priority 2014, published 2017) come the findings set out here.

The experiment concerns the target T1, SIRT1 (Homo sapiens, UniProt Q96EB6).
T1 sequence (Q96EB6 1-747): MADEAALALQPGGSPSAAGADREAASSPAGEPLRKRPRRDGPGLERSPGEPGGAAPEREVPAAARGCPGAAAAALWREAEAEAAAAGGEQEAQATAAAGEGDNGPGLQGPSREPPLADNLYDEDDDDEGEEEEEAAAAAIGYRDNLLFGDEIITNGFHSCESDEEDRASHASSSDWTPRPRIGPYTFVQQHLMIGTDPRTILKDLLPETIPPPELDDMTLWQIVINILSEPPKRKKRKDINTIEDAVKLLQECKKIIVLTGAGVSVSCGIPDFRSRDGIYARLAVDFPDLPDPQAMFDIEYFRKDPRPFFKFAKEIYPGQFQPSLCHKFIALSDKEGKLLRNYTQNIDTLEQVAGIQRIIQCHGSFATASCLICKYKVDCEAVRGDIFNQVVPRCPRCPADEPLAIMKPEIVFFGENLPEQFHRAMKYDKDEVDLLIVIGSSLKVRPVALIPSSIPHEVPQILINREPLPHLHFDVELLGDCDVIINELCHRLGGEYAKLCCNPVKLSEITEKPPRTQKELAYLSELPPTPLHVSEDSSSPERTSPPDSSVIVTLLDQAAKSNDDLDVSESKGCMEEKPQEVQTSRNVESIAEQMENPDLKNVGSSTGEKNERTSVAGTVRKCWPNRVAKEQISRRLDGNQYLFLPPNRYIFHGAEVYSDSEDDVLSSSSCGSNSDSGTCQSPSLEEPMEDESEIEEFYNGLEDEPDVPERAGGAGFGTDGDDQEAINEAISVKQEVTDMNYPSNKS
Description: Trp mass spectrometry assay of SIRT1 activity (EC1.5, percent maximum activation). Conditions: Trp mass spectrometry assay; for TRP Activity (EC1.5): EC1.5 = concentration giving 150% activation of SIRT1. The class given is biochemical. The method in brief:
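MS readout: O-acetyl-ADP-ribose (or deacetylated peptide) formed by His-tagged SIRT1 (BL21(DE3)-expressed) on 5TMR-Trp p53-based peptide, 25 min, formic acid stop. EC1.5 = concentration raising activity 50% over no-compound control; % max activation vs control = 100%.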

Where [1] appears, read: percent maximum activation of SIRT1.
Where [2] appears, read: 0.5 μM peptide substrate, 120 μM βNAD+, 10 nM SIRT1, 25 minutes at 25° C.

On to `Cc1cc(-c2ccc3c(n2)N(C(=O)Nc2ccn(C)n2)[C@H]2CCN3C2)ccn1` [Example 182, (4S)-N-(1-methyl-1H-pyrazol-3-yl)-7-(2-methylpyridin-4-yl)-3,4-dihydro-1,4-methanopyrido[2,3-b][1,4]diazepine-5(2H)-carboxamide], for which the “TRP Activity (EC1.5)” value was “B (EC1.5 1-25 μM)”. The “TRP MAX RESP (percent maximum fold activation)” value under setting [1] is given as “A (Fold activation ≧150%)”.

Regarding `Cc1cc(-c2ccc3c(n2)N(C(=O)NC2CCC2)[C@H]2CCN3C2)ccn1` [Example 183, (4S)-N-cyclobutyl-7-(2-methylpyridin-4-yl)-3,4-dihydro-1,4-methanopyrido[2,3-b][1,4]diazepine-5(2H)-carboxamide], the “TRP Activity (EC1.5)” value is “B (EC1.5 1-25 μM)”. Also, under setting [1], the “TRP MAX RESP (percent maximum fold activation)” value was “A (Fold activation ≧150%)”.

Take `Cc1cc(-c2ccc3c(n2)N(C(=O)NCc2ccccn2)[C@H]2CCN3C2)ccn1` [Example 186, (4S)-7-(2-methylpyridin-4-yl)-N-(pyridin-2-ylmethyl)-3,4-dihydro-1,4-methanopyrido[2,3-b][1,4]diazepine-5(2H)-carboxamide]: the “TRP Activity (EC1.5)” value is recorded as “C (EC1.5>25 μM)”. Also, the “TRP MAX RESP (percent maximum fold activation)” value under setting [1] is listed as “B (Fold Activation <150%)”.

In the case of `Cc1cc(-c2ccc3c(n2)N(C(=O)Nc2cnncn2)[C@H]2CCN3C2)ccn1` [Example 187, (4S)-7-(2-methylpyridin-4-yl)-N-(1,2,4-triazin-5-yl)-3,4-dihydro-1,4-methanopyrido[2,3-b][1,4]diazepine-5(2H)-carboxamide], the “TRP Activity (EC1.5)” value was “C (EC1.5>25 μM)”. Moreover, the “TRP MAX RESP (percent maximum fold activation)” value under setting [1] was “B (Fold Activation <150%)”.

Consider `Cc1cc(-c2ccc3c(n2)N(C(=O)Nc2ccc4[nH]cnc4n2)[C@H]2CCN3C2)ccn1` [Example 189, (4S)-N-(1H-imidazo[4,5-b]pyridin-5-yl)-7-(2-methylpyridin-4-yl)-3,4-dihydro-1,4-methanopyrido[2,3-b][1,4]diazepine-5(2H)-carboxamide], for which the “TRP Activity (EC1.5)” value is “B (EC1.5 1-25 μM)”. The “TRP MAX RESP (percent maximum fold activation)” value under setting [1] is given as “A (Fold activation ≧150%)”.

As to `Cc1cc(-c2ccc3c(n2)N(C(=O)Nc2cncc(F)n2)[C@H]2CCN3C2)ccn1` [Example 190, (4S)-N-(6-fluoropyrazin-2-yl)-7-(2-methylpyridin-4-yl)-3,4-dihydro-1,4-methanopyrido[2,3-b][1,4]diazepine-5(2H)-carboxamide], the “TRP Activity (EC1.5)” value was “A (EC1.5<1 μM)”. Also, under setting [1], the “TRP MAX RESP (percent maximum fold activation)” value is given as “A (Fold activation ≧150%)”.

On to `O=C(Nc1cnccn1)N1c2nc(N3CCC(C(F)(F)F)CC3)ccc2N2CC[C@H]1C2` [Example 191, (4S)-N-(pyrazin-2-yl)-7-(4-(trifluoromethyl)piperidin-1-yl)-3,4-dihydro-1,4-methanopyrido[2,3-b][1,4]diazepine-5(2H)-carboxamide], for which the “TRP Activity (EC1.5)” value was “A (EC1.5<1 μM)”. For the same compound, the “TRP MAX RESP (percent maximum fold activation)” value under setting [1] was “A (Fold activation ≧150%)”.

Consider `Cc1cncc(NC(=O)N2c3nc(-c4ccnc(C)c4)ccc3N3CC[C@H]2C3)c1` [Example 194, (4S)-N-(5-methylpyridin-3-yl)-7-(2-methylpyridin-4-yl)-3,4-dihydro-1,4-methanopyrido[2,3-b][1,4]diazepine-5(2H)-carboxamide], for which the “TRP Activity (EC1.5)” value was “B (EC1.5 1-25 μM)”. The “TRP MAX RESP (percent maximum fold activation)” value under setting [1] is given as “A (Fold activation ≧150%)”.

As to `Cc1cc(-c2ccc3c(n2)N(C(=O)Nc2ccc4c(c2)OCO4)[C@H]2CCN3C2)ccn1` [Example 195, (4S)-N-(benzo[d][1,3]dioxol-5-yl)-7-(2-methylpyridin-4-yl)-3,4-dihydro-1,4-methanopyrido[2,3-b][1,4]diazepine-5(2H)-carboxamide], the “TRP Activity (EC1.5)” value is recorded as “A (EC1.5<1 μM)”. The “TRP MAX RESP (percent maximum fold activation)” value under setting [1] is “A (Fold activation ≧150%)”.

For `Cc1cc(-c2ccc3c(n2)N(C(=O)NCCc2ccccn2)[C@H]2CCN3C2)ccn1.Cl` [Example 196, (4S)-7-(2-methylpyridin-4-yl)-N-(2-(pyridin-2-yl)ethyl)-3,4-dihydro-1,4-methanopyrido[2,3-b][1,4]diazepine-5(2H)-carboxamide hydrochloride], the “TRP Activity (EC1.5)” value is “C (EC1.5>25 μM)”. Also, the “TRP MAX RESP (percent maximum fold activation)” value under setting [1] is given as “B (Fold Activation <150%)”.

Turning to `O=C(Nc1cnccn1)N1c2nc(N3CCNCC3)ccc2N2CC[C@H]1C2` [Example 197, (4S)-7-(piperazin-1-yl)-N-(pyrazin-2-yl)-3,4-dihydro-1,4-methanopyrido[2,3-b][1,4]diazepine-5(2H)-carboxamide], the “TRP Activity (EC1.5)” value is “C (EC1.5>25 μM)”. In addition, the “TRP MAX RESP (percent maximum fold activation)” value under setting [1] is “B (Fold Activation <150%)”.

As to `CC1CCN(c2ccc3c(n2)N(C(=O)Nc2cnccn2)[C@H]2CCN3C2)CC1` [Example 198, (4S)-7-(4-methylpiperidin-1-yl)-N-(pyrazin-2-yl)-3,4-dihydro-1,4-methanopyrido[2,3-b][1,4]diazepine-5(2H)-carboxamide], the “TRP Activity (EC1.5)” value is “B (EC1.5 1-25 μM)”. In addition, the “TRP MAX RESP (percent maximum fold activation)” value under setting [1] is listed as “A (Fold activation ≧150%)”.

Turning to `CCn1cc(-c2nc3c(cc2Cl)N2CC[C@@H](C2)N3C(=O)Nc2ccnc(OC[C@@H](O)CO)c2)cn1` [Example 199, (4S)-8-chloro-N-(2-((S)-2,3-dihydroxypropoxy)pyridin-4-yl)-7-(1-ethyl-1H-pyrazol-4-yl)-3,4-dihydro-1,4-methanopyrido[2,3-b][1,4]diazepine-5(2H)-carboxamide], the “TRP Activity (EC1.5)” value is reported as “B (EC1.5 1-25 μM)”. Besides, the “TRP MAX RESP (percent maximum fold activation)” value under setting [1] is listed as “A (Fold activation ≧150%)”.

Take `Cc1ccc(-c2ccc3c(n2)N(C(=O)Nc2cnccn2)[C@H]2CCN3C2)c(C)n1` [Example 200, (4S)-7-(2,6-dimethylpyridin-3-yl)-N-(pyrazin-2-yl)-3,4-dihydro-1,4-methanopyrido[2,3-b][1,4]diazepine-5(2H)-carboxamide]: the “TRP Activity (EC1.5)” value is given as “B (EC1.5 1-25 μM)”. Besides, under setting [1], the “TRP MAX RESP (percent maximum fold activation)” value is “A (Fold activation ≧150%)”.

On to `Cc1ccc(-c2ccc3c(n2)N(C(=O)Nc2cccnc2)[C@H]2CCN3C2)c(C)n1` [Example 201, (4S)-7-(2,6-dimethylpyridin-3-yl)-N-(pyridin-3-yl)-3,4-dihydro-1,4-methanopyrido[2,3-b][1,4]diazepine-5(2H)-carboxamide], for which, under setting [2], the “TRP Activity (EC1.5, concentration of test compound that results in 150% activation of SIRT1)” value was “B (EC1.5 1-25 μM)” and the “TRP MAX RESP (percent maximum fold activation)” value is listed as “A (Fold activation ≧150%)”.

As for `Cc1cc(-c2ccc3c(n2)N(C(=O)Nc2nc4scc(C)n4n2)[C@H]2CCN3C2)ccn1` [Example 202, (4S)-7-(2-methylpyridin-4-yl)-N-(6-methylthiazolo[3,2-b][1,2,4]triazol-2-yl)-3,4-dihydro-1,4-methanopyrido[2,3-b][1,4]diazepine-5(2H)-carboxamide], under setting [2], the “TRP Activity (EC1.5, concentration of test compound that results in 150% activation of SIRT1)” value was “B (EC1.5 1-25 μM)” and the “TRP MAX RESP (percent maximum fold activation)” value is “A (Fold activation ≧150%)”.

For the compound `O=C(Nc1cccnc1)N1c2nc(N3CCOC[C@@H]3CO)ccc2N2CC[C@H]1C2` [Example 203, (4S)-7-((S)-3-(hydroxymethyl)morpholino)-N-(pyridin-3-yl)-3,4-dihydro-1,4-methanopyrido[2,3-b][1,4]diazepine-5(2H)-carboxamide], under setting [2], the “TRP Activity (EC1.5, concentration of test compound that results in 150% activation of SIRT1)” value is listed as “C (EC1.5>25 μM)” and the “TRP MAX RESP (percent maximum fold activation)” value was “B (Fold Activation <150%)”.

As for `C[C@@H]1COCCN1c1ccc2c(n1)N(C(=O)Nc1cccnc1)[C@H]1CCN2C1` [Example 204, (4S)-7-((R)-3-methylmorpholino)-N-(pyridin-3-yl)-3,4-dihydro-1,4-methano-pyrido[2,3-b][1,4]diazepine-5(2H)-carboxamide], under setting [2], the “TRP Activity (EC1.5, concentration of test compound that results in 150% activation of SIRT1)” value is recorded as “B (EC1.5 1-25 μM)” and the “TRP MAX RESP (percent maximum fold activation)” value was “A (Fold activation ≧150%)”.

Regarding `Cc1ccc(-c2ccc3c(n2)N(C(=O)Nc2cncc(OC[C@@H](O)CO)n2)[C@H]2CCN3C2)cn1` [Example 205, (4S)-N-(6-((S)-2,3-dihydroxypropoxy)pyrazin-2-yl)-7-(6-methylpyridin-3-yl)-3,4-dihydro-1,4-methanopyrido[2,3-b][1,4]diazepine-5(2H)-carboxamide], under setting [2], the “TRP Activity (EC1.5, concentration of test compound that results in 150% activation of SIRT1)” value is “B (EC1.5 1-25 μM)” and the “TRP MAX RESP (percent maximum fold activation)” value is given as “A (Fold activation ≧150%)”.
